Measured values taken from patent US11780893B2, “Kv1.3 blockers” (Zealand Pharma A/S, priority 2019, dated 2023).
pIC50: −log10 of the molar value. Bridge positions count the residues as written; N and C are the ends. Square brackets hold non-standard residues; d marks the D form. Peptide text beside a SMILES is read from it. Phe(4-NH2) = Nc1ccc(C[C@H](N)C(=O)O)cc1; Nle = CCCC[C@H](N)C(=O)O

Experiments:
[1] = target: T1, Kv1.1 (Homo sapiens, UniProt Q09470); assay: cell-based; conditions: for IC50: CHO cells, whole-cell patch clamp, read-out: Potency IC50 (nM) Kv1.1; for Selectivity Kv1.1/Kv1.3: ratio IC50[Kv1.1]/IC50[Kv1.3]
T1 construct: expressed in transfected cells; host or cells: Chinese Hamster Ovary (CHO)

[2] = target: T2, human Kv1.3 voltage-gated K+ channel (Homo sapiens, UniProt P22001); assay: cell-based; conditions: inhibition of thallium flux, CHO-DUKX cells with human Kv1.3; read-out: IC50
T2 construct: host or cells: CHO-DUKX

[3] = target: T3, Kv1.2 (Homo sapiens, UniProt P16389); assay: cell-based; conditions: for IC50: CHO cells, whole-cell patch clamp, read-out: Potency IC50 (nM) Kv1.2
T3 construct: expressed in transfected cells; host or cells: Chinese Hamster Ovary (CHO)

[4] = target: Rat whole blood (Rattus norvegicus, UniProt P15384)
[5] = target: T4, Kv1.6 (Homo sapiens, UniProt P17658); assay: cell-based; conditions: for IC50: CHO cells, whole-cell patch clamp, read-out: Potency IC50 (nM) Kv1.6; for Selectivity Kv1.6/Kv1.3: ratio IC50[Kv1.6]/IC50[Kv1.3]
T4 construct: expressed in transfected cells; host or cells: Chinese Hamster Ovary (CHO)

[6] = target: T5, Kv1.3 (Homo sapiens, UniProt P22001); assay: cell-based; conditions: CHO cells, whole-cell patch clamp; read-out: Potency IC50 (nM) Kv1.3
T5 construct: expressed in transfected cells; host or cells: Chinese Hamster Ovary (CHO)
T5 sequence (P22001 whole entry): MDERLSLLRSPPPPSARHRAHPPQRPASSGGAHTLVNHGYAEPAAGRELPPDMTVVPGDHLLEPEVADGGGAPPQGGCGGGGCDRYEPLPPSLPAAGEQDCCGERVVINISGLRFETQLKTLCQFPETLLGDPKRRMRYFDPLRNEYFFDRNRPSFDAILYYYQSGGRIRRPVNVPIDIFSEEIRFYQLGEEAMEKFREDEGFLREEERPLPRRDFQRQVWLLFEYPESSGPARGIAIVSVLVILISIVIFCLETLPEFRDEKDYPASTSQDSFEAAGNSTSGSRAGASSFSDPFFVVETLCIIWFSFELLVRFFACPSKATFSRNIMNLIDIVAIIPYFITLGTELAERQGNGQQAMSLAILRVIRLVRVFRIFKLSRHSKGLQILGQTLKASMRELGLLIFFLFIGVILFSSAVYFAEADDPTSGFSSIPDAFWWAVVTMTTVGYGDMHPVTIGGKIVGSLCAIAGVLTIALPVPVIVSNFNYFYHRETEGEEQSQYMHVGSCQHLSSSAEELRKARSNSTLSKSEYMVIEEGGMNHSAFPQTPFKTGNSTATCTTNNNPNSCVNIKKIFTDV

T2 sequence (P22001 whole entry): as above
T1 sequence (Q09470 whole entry): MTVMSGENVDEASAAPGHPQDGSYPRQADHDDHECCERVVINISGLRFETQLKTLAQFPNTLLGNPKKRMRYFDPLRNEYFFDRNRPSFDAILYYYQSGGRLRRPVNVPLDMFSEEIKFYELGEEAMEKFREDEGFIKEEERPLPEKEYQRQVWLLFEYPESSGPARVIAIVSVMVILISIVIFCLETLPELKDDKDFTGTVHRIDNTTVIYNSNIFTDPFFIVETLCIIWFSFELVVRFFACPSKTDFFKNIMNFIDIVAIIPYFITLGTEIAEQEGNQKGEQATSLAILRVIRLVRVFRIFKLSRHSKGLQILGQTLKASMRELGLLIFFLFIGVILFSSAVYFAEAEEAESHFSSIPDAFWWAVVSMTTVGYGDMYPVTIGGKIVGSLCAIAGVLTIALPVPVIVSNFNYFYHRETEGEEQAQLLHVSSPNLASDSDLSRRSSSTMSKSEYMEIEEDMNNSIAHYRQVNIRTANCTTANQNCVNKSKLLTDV
Chain of Rat whole blood (P15384 whole entry): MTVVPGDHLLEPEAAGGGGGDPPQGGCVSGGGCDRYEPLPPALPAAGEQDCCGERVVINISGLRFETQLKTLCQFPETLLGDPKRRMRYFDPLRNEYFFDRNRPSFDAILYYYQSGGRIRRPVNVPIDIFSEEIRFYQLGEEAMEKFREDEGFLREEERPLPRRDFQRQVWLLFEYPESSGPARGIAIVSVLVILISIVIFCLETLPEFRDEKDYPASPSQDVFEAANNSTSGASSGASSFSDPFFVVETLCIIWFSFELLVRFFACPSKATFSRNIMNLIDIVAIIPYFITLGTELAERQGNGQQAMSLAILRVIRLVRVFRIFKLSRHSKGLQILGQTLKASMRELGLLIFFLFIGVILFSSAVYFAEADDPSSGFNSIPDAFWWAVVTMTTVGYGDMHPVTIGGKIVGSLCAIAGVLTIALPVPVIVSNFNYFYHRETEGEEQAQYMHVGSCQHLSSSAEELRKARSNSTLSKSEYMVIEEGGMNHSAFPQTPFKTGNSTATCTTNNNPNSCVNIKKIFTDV
T4 sequence (P17658 whole entry): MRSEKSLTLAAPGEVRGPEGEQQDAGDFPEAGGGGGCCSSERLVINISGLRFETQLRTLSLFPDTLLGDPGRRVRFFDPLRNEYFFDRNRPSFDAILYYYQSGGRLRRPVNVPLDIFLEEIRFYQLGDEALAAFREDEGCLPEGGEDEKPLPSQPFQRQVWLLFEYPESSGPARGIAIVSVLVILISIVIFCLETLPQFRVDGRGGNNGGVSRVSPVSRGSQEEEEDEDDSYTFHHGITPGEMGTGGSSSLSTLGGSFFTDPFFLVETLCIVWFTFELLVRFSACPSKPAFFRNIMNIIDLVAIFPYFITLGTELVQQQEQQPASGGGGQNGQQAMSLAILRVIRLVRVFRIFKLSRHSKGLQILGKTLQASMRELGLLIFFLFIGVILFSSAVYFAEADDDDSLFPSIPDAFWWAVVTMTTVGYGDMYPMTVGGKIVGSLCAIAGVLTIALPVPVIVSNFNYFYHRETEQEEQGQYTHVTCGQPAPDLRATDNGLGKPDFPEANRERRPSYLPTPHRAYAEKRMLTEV
T3 sequence (P16389 whole entry): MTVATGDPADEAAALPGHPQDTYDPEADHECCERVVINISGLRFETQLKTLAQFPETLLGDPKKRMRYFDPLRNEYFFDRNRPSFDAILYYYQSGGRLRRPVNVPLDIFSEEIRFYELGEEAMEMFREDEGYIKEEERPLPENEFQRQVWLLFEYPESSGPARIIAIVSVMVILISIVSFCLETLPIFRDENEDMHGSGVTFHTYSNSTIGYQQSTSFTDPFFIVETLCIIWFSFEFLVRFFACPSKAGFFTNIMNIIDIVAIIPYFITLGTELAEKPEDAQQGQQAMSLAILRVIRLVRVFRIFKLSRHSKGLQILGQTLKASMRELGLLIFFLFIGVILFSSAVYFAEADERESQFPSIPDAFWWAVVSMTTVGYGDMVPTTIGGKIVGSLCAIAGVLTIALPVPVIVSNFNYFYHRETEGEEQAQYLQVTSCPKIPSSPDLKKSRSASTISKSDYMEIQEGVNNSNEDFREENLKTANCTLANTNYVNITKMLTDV

| Structure (SMILES) | IC50 [1] | Selectivity Kv1.1/Kv1.3 [1] | pIC50 [2] | IC50 [3] | pIC50 [4] | IC50 [5] | IC50 [6] | Selectivity Kv1.6/Kv1.3 [5] | Selectivity Kv1.2/Kv1.3 ([3]; ratio IC50[Kv1.2]/IC50[Kv1.3]) |
| --- | --- | --- | --- | --- | --- | --- | --- | --- | --- |
| CCCC[C@@H]1NC(=O)[C@@H]2CSSC[C@H](NC(=O)[C@H](CCCNC(=N)N)NC(=O)[C@H](CCCC)NC(=O)[C@H](CC(=O)O)NC(=O)[C@H](CCCC)NC(=O)[C@@H](N)CC(N)=O)C(=O)N[C@@H](CO)C(=O)N[C@@H](C)C(=O)N[C@@H](CO)C(=O)N[C@@H](C(C)C)C(=O)N[C@@H](CCC(=O)O)C(=O)N[C@H]3CSSC[C@H](NC(=O)[C@H](CCCCN)NC(=O)[C@H](CCCCN)NC(=O)[C@H](CC(N)=O)NC1=O)C(=O)N[C@@H](CCCCN)C(=O)N[C@H](C(=O)N[C@@H](Cc1ccc(O)cc1)C(=O)N1CCC[C@H]1C(=O)N[C@@H](CCCNC(=N)N)C(N)=O)CSSC[C@H](NC(=O)[C@H](CCCCN)NC(=O)[C@H](CCC(N)=O)NC(=O)[C@H](CCCCN)NC3=O)C(=O)N[C@@H](CC(C)C)C(=O)N[C@@H](CCCCN)C(=O)N[C@@H](C)C(=O)N[C@@H]([C@@H](C)CC)C(=O)NCC(=O)N[C@@H](CO)C(=O)N1CCC[C@H]1C(=O)N[C@@H](Cc1ccccc1)C(=O)NCC(=O)N[C@@H](CCCCN)C(=O)N2 [Compound 62] (H-N[Nle]D[Nle]RCSASVECKQKCLKAIGSPFGKC[Nle]NKKCKCYPR-NH2; disulfide 6-27, 12-32, 16-34) | > 3000 nM | >11600 | 9.89 | 449 nM | ≥ 9.00 | 2350 nM | 0.26 nM |  |  |
| CCCC[C@@H]1NC(=O)[C@@H]2CSSC[C@H](NC(=O)[C@H](CCCNC(=N)N)NC(=O)[C@H](CCCC)NC(=O)[C@H](CC(=O)O)NC(=O)[C@H](CCCC)NC(=O)[C@@H](N)CC(N)=O)C(=O)N[C@@H](CO)C(=O)N[C@@H](C)C(=O)N[C@@H](CO)C(=O)N[C@@H](CCCCN)C(=O)N[C@@H](CCC(=O)O)C(=O)N[C@H]3CSSC[C@H](NC(=O)[C@H](CCCCN)NC(=O)[C@H](CCCCN)NC(=O)[C@H](CC(N)=O)NC1=O)C(=O)N[C@@H](CCCCN)C(=O)N[C@H](C(=O)N[C@@H](Cc1ccc(O)cc1)C(=O)N1CCC[C@H]1C(=O)N[C@@H](CCCNC(=N)N)C(N)=O)CSSC[C@H](NC(=O)[C@H](CCCCN)NC(=O)[C@H](CCC(N)=O)NC(=O)[C@H](CCCCN)NC3=O)C(=O)N[C@@H](CC(C)C)C(=O)N[C@@H](CCCCN)C(=O)N[C@@H](C)C(=O)N[C@@H]([C@@H](C)CC)C(=O)NCC(=O)N[C@@H](CO)C(=O)N[C@@H]([C@@H](C)CC)C(=O)N[C@@H](Cc1ccccc1)C(=O)NCC(=O)N[C@@H](CCCCN)C(=O)N2 [Compound 63] (H-N[Nle]D[Nle]RCSASKECKQKCLKAIGSIFGKC[Nle]NKKCKCYPR-NH2; disulfide 6-27, 12-32, 16-34) | > 3000 nM | >9600 | 9.89 | 184 nM | ≥ 9.00 | 1230 nM | 0.31 nM |  |  |
| CCCC[C@H](NC(=O)[C@H](CC(=O)O)NC(=O)[C@H](CCCC)NC(=O)[C@@H](N)CO)C(=O)N[C@@H](CCCNC(=N)N)C(=O)N[C@H]1CSSC[C@@H]2NC(=O)[C@H](CCCCN)NC(=O)CNC(=O)[C@H](Cc3ccccc3)NC(=O)[C@H]([C@@H](C)CC)NC(=O)[C@H](CO)NC(=O)CNC(=O)[C@H]([C@@H](C)CC)NC(=O)[C@H](C)NC(=O)[C@H](CCCCN)NC(=O)[C@H](CC(C)C)NC(=O)[C@@H]3CSSC[C@@H](C(=O)N[C@@H](Cc4ccc(N)cc4)C(=O)N4CCC[C@H]4C(=O)N[C@@H](CCCNC(=N)N)C(N)=O)NC(=O)[C@H](CCCCN)NC(=O)[C@H](CSSC[C@H](NC(=O)[C@H](CCC(=O)O)NC(=O)[C@H](C(C)C)NC(=O)[C@H](CO)NC(=O)[C@H](C)NC(=O)[C@H](CO)NC1=O)C(=O)N[C@@H](CCCCN)C(=O)N[C@@H](CCC(N)=O)C(=O)N[C@@H](CCCCN)C(=O)N3)NC(=O)[C@H](CCCCN)NC(=O)[C@H](CCCCN)NC(=O)[C@H](CC(N)=O)NC(=O)[C@H](CCSC)NC2=O [Compound 70] (H-S[Nle]D[Nle]RCSASVECKQKCLKAIGSIFGKCMNKKCKC[Phe(4-NH2)]PR-NH2; disulfide 6-27, 12-32, 16-34) | > 3000 nM | >12200 | 9.89 | 423 nM | ≥ 9.00 | > 3000 nM | 0.25 nM | >12200 |  |
| CCCC[C@H](NC(=O)[C@H](CC(=O)O)NC(=O)[C@H](CCCC)NC(=O)[C@@H](N)CO)C(=O)N[C@@H](CCCNC(=N)N)C(=O)N[C@H]1CSSC[C@@H]2NC(=O)[C@H](CCCCN)NC(=O)CNC(=O)[C@H](Cc3ccccc3)NC(=O)[C@H]([C@@H](C)CC)NC(=O)[C@H](CO)NC(=O)CNC(=O)[C@H]([C@@H](C)CC)NC(=O)[C@H](C)NC(=O)[C@H](CCCCN)NC(=O)[C@H](CC(C)C)NC(=O)[C@@H]3CSSC[C@@H](C(=O)N[C@@H](Cc4ccc(O)cc4)C(=O)N4CCC[C@H]4C(=O)N[C@@H](CCCNC(=N)N)C(N)=O)NC(=O)[C@H](CCCCN)NC(=O)[C@H](CSSC[C@H](NC(=O)[C@H](CCC(=O)O)NC(=O)[C@H](C(C)C)NC(=O)[C@H](CO)NC(=O)[C@H](C)NC(=O)[C@H](CO)NC1=O)C(=O)NCC(=O)N[C@@H](CCC(N)=O)C(=O)N[C@@H](CCCCN)C(=O)N3)NC(=O)[C@H](CCCCN)NC(=O)[C@H](CCCCN)NC(=O)[C@H](CC(N)=O)NC(=O)[C@H](CCSC)NC2=O [Compound 71] (H-S[Nle]D[Nle]RCSASVECGQKCLKAIGSIFGKCMNKKCKCYPR-NH2; disulfide 6-27, 12-32, 16-34) | > 3000 nM | >27700 | 10.00 | 373 nM | ≥ 9.00 | > 3000 nM | 0.11 nM | >27700 |  |
| CCCC[C@H](NC(=O)[C@@H](N)CO)C(=O)N[C@@H](CC(=O)O)C(=O)N[C@@H](CCC(=O)O)C(=O)N[C@@H](CCCNC(=N)N)C(=O)N[C@H]1CSSC[C@@H]2NC(=O)[C@H](CCCCN)NC(=O)CNC(=O)[C@H](Cc3ccccc3)NC(=O)[C@H]([C@@H](C)CC)NC(=O)[C@H](CO)NC(=O)CNC(=O)[C@H]([C@@H](C)CC)NC(=O)[C@H](C)NC(=O)[C@H](CCCCN)NC(=O)[C@H](CC(C)C)NC(=O)[C@@H]3CSSC[C@@H](C(=O)N[C@@H](Cc4ccc(O)cc4)C(=O)N4CCC[C@H]4C(=O)N[C@@H](CCCNC(=N)N)C(N)=O)NC(=O)[C@H](CCCCN)NC(=O)[C@H](CSSC[C@H](NC(=O)[C@H](CCC(=O)O)NC(=O)[C@H](C(C)C)NC(=O)[C@H](CO)NC(=O)[C@H](C)NC(=O)[C@H](CO)NC1=O)C(=O)N[C@@H](CCCCN)C(=O)N[C@@H](CCC(N)=O)C(=O)N[C@@H](CCCCN)C(=O)N3)NC(=O)[C@H](CCCCN)NC(=O)[C@H](CCCCN)NC(=O)[C@H](CC(N)=O)NC(=O)[C@H](CCSC)NC2=O [Compound 76] (H-S[Nle]DERCSASVECKQKCLKAIGSIFGKCMNKKCKCYPR-NH2; disulfide 6-27, 12-32, 16-34) | > 3000 nM | >10600 | 10.03 | 122 nM | ≥ 9.00 | > 3000 nM | 0.28 nM | >10600 |  |
| CCCC[C@H](NC(=O)[C@@H]1CCCN1)C(=O)N[C@@H](CC(=O)O)C(=O)N[C@@H](CCCC)C(=O)N[C@@H](CCCNC(=N)N)C(=O)N[C@H]1CSSC[C@@H]2NC(=O)[C@H](CCCCN)NC(=O)CNC(=O)[C@H](Cc3ccccc3)NC(=O)[C@H]([C@@H](C)CC)NC(=O)[C@@H]3CSSC[C@@H](C(N)=O)NC(=O)[C@@H]4CCCN4C(=O)[C@H](Cc4ccc(O)cc4)NC(=O)[C@@H]4CSSC[C@H](NC(=O)[C@H](CCCCN)NC(=O)[C@H](CCC(N)=O)NC(=O)[C@H](CCCCN)NC(=O)[C@H](CSSC[C@H](NC(=O)[C@H](CCCCN)NC(=O)[C@H](CCCCN)NC(=O)[C@H](CC(N)=O)NC(=O)[C@H](CCCC)NC2=O)C(=O)N[C@@H](CCCCN)C(=O)N4)NC(=O)[C@H](CCC(=O)O)NC(=O)[C@H](C(C)C)NC(=O)[C@H](CO)NC(=O)[C@H](C)NC(=O)[C@H](CO)NC1=O)C(=O)N[C@@H](CC(C)C)C(=O)N[C@@H](CCCCN)C(=O)N[C@@H](C)C(=O)N[C@@H]([C@@H](C)CC)C(=O)NCC(=O)N3 [Compound 83] (H-P[Nle]D[Nle]RCSASVECKQKCLKAIGCIFGKC[Nle]NKKCKCYPC-NH2; disulfide 6-27, 12-32, 16-34, 22-37) | > 3000 nM | >4800 | 9.92 | 624 nM | ≥ 9.00 | 1220 nM | 0.63 nM | 1949 | 995 |
